From patent US20060079453A1, “Hla binding peptides and their uses” (priority 2002, published 2006)
Where two headings read alike, the source gives them in different places. No end group written: not given here.

Legend:
[1] = target: HLA-A*2902 (Homo sapiens, UniProt P04439, A270S/D101N/D185E/E176V/E277Q/E87Q/F33T/G231S/H175R/I121M/I218V/I322F/K168Q/L300P/L318F/M331R/P208A/P217A/Q86L/T323A/T345S/V100A/V358M); experiment: MHC molecular binding / Capture assay, IC50: A*2902
[2] = target: HLA-A*2402 (Homo sapiens, UniProt P04439, D101N/D140Y/D185E/E176V/E190D/F33S/G103R/G107R/I119L/I121M/I306V/K335N/L105A/L180Q/L300P/N151K/N90K/Q86E/Q94H/R106L/R138H/R89G/T104I/T345S/V100E/W191G/Y123F); experiment: MHC molecular binding / Capture assay, IC50: A*2402
[3] = target: HLA-A*2301 (Homo sapiens, UniProt P04439, D101N/D140Y/D185E/E176V/E190D/F33S/G103R/G107R/H175R/I119L/I121M/I306V/K168Q/K335N/L105A/L300P/N151K/N90K/P307H/Q86E/Q94H/R106L/R138H/R89G/T104I/T345S/V100E/W191G/Y123F); experiment: biochemical; type: binding
[4] = target: HLA-A*3002 (Homo sapiens, UniProt P04439, D101N/D140H/D185E/E176R/F33S/G80R/H175R/K168Q/Q94H/R138E/R41S/V100E); experiment: biochemical; type: binding
[5] = target: HLA-B*4002 (Homo sapiens, UniProt P01889, A65T/A93T/A95T/D138N/D201E/D98Y/E176V/E204Q/E69K/K202T/N87E/Q56L/Q94N/R180L/S48T/Y33H/Y91S); experiment: biochemical; type: binding
[6] = target: HLA-B*1801 (Homo sapiens, UniProt P01889, A329T/A93T/A95T/C349S/D201E/D54G/D98Y/E176V/E187T/E204Q/E69T/K202T/Q94N/R155S/R180L/S121R/V306I/Y140S/Y195H/Y33H/Y91S); experiment: biochemical; type: binding
[7] = target: HLA-B*4402 (Homo sapiens, UniProt P01889, A223V/A65T/A93T/A95T/D201E/D98Y/E176V/E187L/E204Q/E69K/G107R/H137Y/K202T/L105A/L119I/N104T/N87E/Q56L/Q94N/R106L/R155S/R180D/S101N/S121R/S35A/S48T/T118I/V36M/W191S/Y140D/Y91S); experiment: biochemical; type: binding
[8] = target: HLA-B*4501 (Homo sapiens, UniProt P01889, A329T/A65T/A93T/A95T/C349S/D138N/D201E/D98Y/E176V/E187L/E204Q/E69K/H137Y/K202T/L119W/N87E/Q56L/Q94N/R155S/R180D/S121R/S35A/S48T/V127L/V306I/V36M/W191S/Y140L/Y33H/Y91S); experiment: biochemical; type: binding
[9] = target: HLA-B*4001 (Homo sapiens, UniProt P01889, A65T/A93T/A95T/D138N/D98Y/E176V/E69K/N87E/Q56L/Q94N/R180L/S121R/S35A/S48T/T167S/V36M/W171L/Y33H/Y91S); experiment: biochemical; type: binding
[10] = Binding affinity to A*2902 (expressed as an IC50)
[11] = Binding affinity to A*3002 (expressed as an IC50)

Compound	IC50 [1] [µM]	IC50 [2] [µM]	IC50 [3] [µM]	IC50 [8] [µM]	IC50 [4] [µM]	further results
CC(C)C[C@H](NC(=O)[C@H](Cc1c[nH]c2ccccc12)NC(=O)[C@@H]1CCCN1C(=O)[C@H](Cc1ccccc1)NC(=O)[C@H](CO)NC(=O)[C@@H](NC(=O)[C@H](Cc1ccc(O)cc1)NC(=O)[C@@H](N)CCCCN)[C@@H](C)O)C(=O)O	> 172	0.208	0.177			IC50 [1, 10]: > 172 µM; IC50 [4, 11]: 0.346 µM
ADLMGYIPL						IC50 ([5]; B*4002): 0.0047 µM; IC50 ([6]; B*1801): > 7.62 µM; IC50 ([7]; B*4402): > 21.4 µM; IC50 ([8]; B*4501): > 49 µM; IC50 ([9]; B*4001): 0.959 µM
AEFLWVTVY				0.472		IC50 [5]: 0.24 µM; IC50 [6]: 0.131 µM; IC50 [7]: 1.01 µM; IC50 [9]: 0.183 µM
AEKLWVTVY				0.219		IC50 [7]: 0.168 µM; IC50 [9]: 18.3 µM
AENFWVTVY				0.289		IC50 [5]: 0.542 µM; IC50 [9]: 1.39 µM
AENLFVTVY				0.232		IC50 [5]: 0.334 µM; IC50 [6]: 0.029 µM; IC50 [9]: 0.97 µM
AENLPVTVY				0.246		IC50 [6]: 0.02 µM; IC50 [7]: 0.356 µM; IC50 [9]: 0.205 µM
AENLWVTDY				0.328		IC50 [6]: 1 µM; IC50 [7]: 0.191 µM; IC50 [9]: 0.93 µM
AENLWVTKY				0.201		IC50 [5]: 2 µM; IC50 [6]: 0.511 µM; IC50 [9]: 1.01 µM
AENLWVTLY				0.349		IC50 [5]: 0.731 µM; IC50 [6]: 0.392 µM; IC50 [7]: 0.199 µM
AENLWVTVG				0.035		IC50 [5]: 0.047 µM; IC50 [6]: 39.7 µM; IC50 [9]: 0.861 µM
AENLWVTVH				0.12		IC50 [5]: 0.151 µM; IC50 [9]: 0.493 µM
AENLWVTVS				0.034		IC50 [6]: 25.7 µM; IC50 [7]: 4.22 µM
AENLWVTVT				0.01		IC50 [5]: 0.0078 µM; IC50 [7]: 2.7 µM; IC50 [9]: 0.947 µM
AENLWVTVV				0.035		IC50 [5]: 0.019 µM; IC50 [6]: 10.7 µM; IC50 [7]: 5.76 µM; IC50 [9]: 0.084 µM
AENNWVTVY				0.099		
AENVWVTVY				0.737		IC50 [5]: 0.386 µM; IC50 [9]: 2.24 µM
AEPAAEGVGA				0.104		IC50 [6]: > 8.12 µM; IC50 [7]: > 22.6 µM; IC50 [9]: 4.12 µM
AEPAAEGVGAV				1.5		IC50 [6]: > 8.61 µM; IC50 [7]: > 23.9 µM; IC50 [9]: 20.4 µM
AFADLTVVF	0.779	0.203	0.03		0.137	
AFKDLFVVF	3.05	0.294	0.0068		0.829	

Compound	IC50 [1] [µM]	IC50 [2] [µM]	IC50 [3] [µM]	IC50 [8] [µM]	IC50 [4] [µM]	further results
AFRDLCIVF	6.72	1.01	0.369		3.3	
AYKDLFVVY	0.639	1.55	0.905		0.0013	
AYRDLCIVY	7.12	2.09	1.48		0.066	
CEKCSKPCARV						IC50 ([8]; read-out: B*4501): 1.56 µM
DEIGVIDLY						IC50 ([5]; B*4002): > 77.3 µM; IC50 ([7]; B*4402): 0.707 µM; IC50 ([8]; B*4501): > 49 µM; IC50 ([9]; B*4001): > 114 µM
EYRHYQYSF	13.7	0.021	0.0023		0.43	
FYSRIRELRF	0.083	0.011	0.0016		12.6	
IEDPPYNSL				18.7		IC50 [5]: 0.688 µM; IC50 [6]: 35.5 µM; IC50 [9]: 0.016 µM
KENLWVTVY				6.22		IC50 [5]: 0.373 µM; IC50 [6]: 0.184 µM; IC50 [7]: 0.308 µM; IC50 [9]: 2.74 µM
KFLFTDLRF	0.044	0.012	0.00074		0.152	
KYLFTDLRI	78.6	0.108	0.0019		0.339	
KYSKSSIVGW	> 69.4	4.06	0.491		> 34.5	
LFYSKVRKF	11.2	2.01	0.277		0.632	
LYGDTLEQTF	40.9	0.091	0.024		42	
LYPEPTDLF	1.15	0.038	0.017		30.7	
LYVYHTQGY	0.216	7.14	6.09		0.258	
LYVYHTQGYF	1.7	0.038	0.023		1.22	
LYYLFNQHI		0.033	0.0014			IC50 ([1]; A*2902 binding affinity (IC50)): 20.1 µM; IC50 ([4]; A*3002 binding affinity (IC50)): 11 µM
LYYSKVRKY	1.45	21.9	2.74		0.028	
MFVPKYFEL		0.266	0.011			IC50 ([1]; A*2902 binding affinity (IC50)): 2.56 µM; IC50 ([4]; A*3002 binding affinity (IC50)): 8.56 µM
NYACTELKL	77.8	1.74	0.131		49.1	

Compound	IC50 [1] [µM]	IC50 [2] [µM]	IC50 [3] [µM]	IC50 [8] [µM]	IC50 [4] [µM]	further results
NYSVYGNTF	9.12	0.028	0.029		2.56	
QEILDLWVY						IC50 ([5]; B*4002): 4.52 µM; IC50 ([6]; B*1801): 0.052 µM; IC50 ([7]; B*4402): 0.264 µM; IC50 ([8]; B*4501): 6.26 µM; IC50 ([9]; B*4001): 0.74 µM
RFHSIAGQF	0.481	0.028	0.0029		0.0012	
RFLSKISEF	40.1	0.058	0.0025		0.201	
RFPLTFGF	12.8	0.178	0.124		13.5	
RYHSIAGQY	0.544	3.17	1.9		0.0014	
RYPLTFGF	9.7	0.0033	0.0064		6.33	
RYPLTFGW		0.127	3.84			IC50 ([1]; A*2902 binding affinity (IC50)): 13.9 µM
SYKSSKRDKF		0.256	0.797			IC50 [1, 10]: 12.6 µM; IC50 [4, 11]: 0.088 µM
TENLWVTVY						IC50 ([8]; B*4501): 5.3 µM; IC50 ([9]; B*4001): 14 µM
TFGWCFKF	4.45	3.42	0.462		> 10.1	
VFADLRIVF	0.087	0.023	0.0025		24.1	
VYCKTVLEF	0.61	0.05	0.0047		1.14	
VYDFVFADF	1.23	0.0099	0.0022		3.96	
VYEFAFKDLF	1.97	0.015	0.0017		2.04	
VYNFACTEF	0.774	0.014	0.0021		0.784	
VYREGNPFGF	11.1	0.197	0.091		21.9	
VYRHCEYIL		2.2	0.064			IC50 ([1]; A*2902 binding affinity (IC50)): 118 µM; IC50 ([4]; A*3002 binding affinity (IC50)): 3.33 µM
VYYNILIVL		0.265	0.052			IC50 ([1]; A*2902 binding affinity (IC50)): > 192 µM
YEDLRVLSF				18.7		IC50 [5]: 0.071 µM; IC50 [6]: 0.02 µM; IC50 [7]: 0.024 µM; IC50 [9]: 0.067 µM
